Results reported in US20040204409A1, “Bicyclic compounds as NR2B receptor antagonists” (priority 2003, published 2004).

Molecular target: T1, NR2B receptor (Rattus norvegicus, UniProt P35439+Q00960)
T1 construct: Membranes were prepared by homogenization of forebrain of male CD rats; from tissue; host or cells: rat forebrain P2 membrane
Assay: NR2B Binding Assay (competition with [3H]-1-[(1S*,2S*)-2-hydroxy-2-(4-hydroxyphenyl)-1-methylethyl]-4-phenylpiperidin-4-ol on P2 membrane)
Details: forebrain P2 membrane of male CD rats, 5 nM radioligand, 60 minutes at room temperature, pH7.4; read-out: Ki value with respect to binding affinity for the NR2B receptor
Description: The activity of the bicyclic amide compounds of the present invention, as NR2B antagonists, is determined by their ability to inhibit the binding of NR2B subunit at its receptor sites employing radioactive ligands.
The NR2B antagonist activity of the bicyclic amide compounds is evaluated by using the standard assay procedure described in, for example, J. Pharmacol., 331, pp117-126, 1997. This method essentially involves determining the concentration of the individual compound required to reduce the amount of radiolabelled NR2B ligands by 50% at their receptor sites, thereby affording characteristic IC50 values for each compound tested. More specifically, the assay is carried out as follows. […]
For the saturation assay, receptor saturation was determined by incubating [^3H]-1-[(1S*,2S*)-2-hydroxy-2-(4-hydroxyphenyl)-1-methylethyl]-4-phenylpiperidin-4-ol and 50 μg protein of P2 membrane for 60 minutes at room temperature in a final 100 μl of incubation buffer (50 mM Tris HCl, pH7.4). Total and non-specific bindings (in the presence of 10 μM of unlabeled 1-[(1S*,2S*)-2-hydroxy-2-(4-hydroxyphenyl)-1-methylethyl]-4-phenylpiperidin-4-ol) were determined in a range of [3H]-1-[(1S*,2S*)-2-hydroxy-2-(4-hydroxyphenyl)-1-methylethyl]-4-phenylpiperidin-4-ol concentrations (0.625 nM to 60 nM). […]

T1 sequence (Q00960 27-1482, other chains not shown): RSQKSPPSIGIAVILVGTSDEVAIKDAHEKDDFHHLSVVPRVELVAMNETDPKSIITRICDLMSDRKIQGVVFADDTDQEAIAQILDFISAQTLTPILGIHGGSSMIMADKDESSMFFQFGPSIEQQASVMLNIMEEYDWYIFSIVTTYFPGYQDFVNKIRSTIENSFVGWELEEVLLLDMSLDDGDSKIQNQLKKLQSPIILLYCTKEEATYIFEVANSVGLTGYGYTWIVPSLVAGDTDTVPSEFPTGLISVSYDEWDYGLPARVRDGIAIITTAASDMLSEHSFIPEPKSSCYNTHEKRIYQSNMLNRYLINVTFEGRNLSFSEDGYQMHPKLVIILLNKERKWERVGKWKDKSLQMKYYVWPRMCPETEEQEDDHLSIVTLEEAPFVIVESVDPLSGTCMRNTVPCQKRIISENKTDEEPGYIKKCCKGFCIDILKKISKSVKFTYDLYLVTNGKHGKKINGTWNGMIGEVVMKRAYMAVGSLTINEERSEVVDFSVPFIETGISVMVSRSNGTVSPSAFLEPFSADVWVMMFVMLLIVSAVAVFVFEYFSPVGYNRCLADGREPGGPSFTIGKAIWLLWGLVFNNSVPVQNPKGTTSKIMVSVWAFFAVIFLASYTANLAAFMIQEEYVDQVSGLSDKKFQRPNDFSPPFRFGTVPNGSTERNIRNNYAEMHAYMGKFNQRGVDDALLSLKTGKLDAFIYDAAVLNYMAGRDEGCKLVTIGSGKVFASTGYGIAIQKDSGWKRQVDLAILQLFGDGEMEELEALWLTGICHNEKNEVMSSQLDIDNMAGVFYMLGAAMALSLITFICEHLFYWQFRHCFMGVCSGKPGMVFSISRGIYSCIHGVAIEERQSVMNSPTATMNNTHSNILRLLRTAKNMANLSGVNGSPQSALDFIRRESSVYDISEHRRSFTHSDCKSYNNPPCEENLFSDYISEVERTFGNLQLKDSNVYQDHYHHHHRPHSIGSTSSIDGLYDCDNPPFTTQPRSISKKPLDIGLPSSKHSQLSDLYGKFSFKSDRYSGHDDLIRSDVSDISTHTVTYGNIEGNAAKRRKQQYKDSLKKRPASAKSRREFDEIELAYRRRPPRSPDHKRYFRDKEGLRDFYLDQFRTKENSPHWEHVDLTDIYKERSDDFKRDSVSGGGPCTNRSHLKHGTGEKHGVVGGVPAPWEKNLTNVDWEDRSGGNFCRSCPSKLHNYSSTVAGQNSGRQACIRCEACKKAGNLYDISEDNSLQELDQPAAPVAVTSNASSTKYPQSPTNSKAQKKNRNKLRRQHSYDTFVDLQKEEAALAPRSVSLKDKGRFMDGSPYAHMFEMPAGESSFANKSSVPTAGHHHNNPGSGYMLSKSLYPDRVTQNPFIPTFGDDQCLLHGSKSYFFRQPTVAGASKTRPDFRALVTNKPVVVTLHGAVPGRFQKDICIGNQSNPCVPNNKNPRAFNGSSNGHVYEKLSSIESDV

SMILES: O=C(NCc1ccc2[nH]c(Cc3ccccc3)cc2c1)c1ccc(O)cc1 [Example 8, N-[(2-benzyl-1H-indol-5-yl)methyl]-4-hydroxybenzamide]
- Ki: 2 nM
